The text below walks through data of PMC6270976, “Pharmacokinetic Study in Mice of Galphimine-A, an Anxiolytic Compound from Galphimia glauca” (Molecules, 2014).

Entries after “also recorded” stand apart in the source; their conditions may differ. Like-named read-outs stand apart in the source and are kept apart here.

Data set [1] in a line: Brain tissue pharmacokinetics of G–A after a single oral dose in ICR mice (HPLC, PKSolver). In kind it is in vivo. As to the method: Eighty-eight mice were randomly divided into 11 groups with eight individuals each. All animals were orally administered with 200 mg/kg of G–A dissolved in 5% β-cyclodextrin solution. Under ether-induced anesthesia, blood samples were obtained from the retroorbital sinus with heparinized cannula at different times (0, 5, 10, 15, 30, 60, 120, 240, 480, 720, and 1,440 min) after G–A administration. The volume of the blood samples was of 700 to 1000 microliters, which were collected in heparinized centrifuge microtubes, after the blood was centrifuged for 5 min at 1,720 × g.
Plasma samples were frozen at −70 °C, and lyophilized after. The obtained dry product was used to extract and measure the amount of G–A. After obtaining blood samples, all animals were perfused with isotonic saline solution (ISS) via cardiac puncture; the femoral vein was used to eliminate the perfusion liquid, until it appeared clear. Subsequently, the brain was removed. The brains were weighed fresh and frozen at −70 °C and then lyophilized. Once dry, the brains were weighed again to determine the volume of water contained in each brain. Dry tissue was ground in a mortar, and G–A was later extracted.
Dry pulverized samples (plasma and brain) were extracted with methanol (HPLC grade, Merck). The extracts were filtered with a 0.45 μm, 13 mm Teflon membrane (Millex®-LCR), and 20 μL of filtrate were injected into the HPLC equipment. Measurements were performed in a Waters 2695 HPLC, with diode array detector (Waters 2996) and the Empower Pro 1.0 software. A Chromolith Performance® RP-18e 100 × 4.6 mm (Merck KGaA Darmstadt, Germany) was used. The mobile phase consisted of a mixture of acetonitrile:water (55:45, 1 mL/min). G–A concentration was obtained by comparison with a pre-built calibration curve at λ = 220 nm.
To evaluate the suitability of the assay for pharmacokinetic studies, 200 mg/kg of G–A was orally administered to mice. Eight animals were used in each group different times (0, 5, 10, 15, 30, 60, 120, 240, 480, 720, and 1440 min). Pharmacokinetic calculations were performed using the observed data. All data were subsequently processed using PKSolver add-in program for Microsoft Excel written in Visual Basic for Applications. […]
The pharmacokinetic model selection either one or two-comparment, were used both the Akaike information criterion (AIC) and Schwarz criterion (SC). Using the criteria, one may select the model with which to reach a lower value of AIC or SC, which means that the chosen model is more parsimonious (less parameters required) and best fits the data (low error prediction).

The conditions of data set [2]: cited from earlier work.
Where [3] appears, read: brain tissue, oral 200 mg/kg, n = 8.
Where [4] appears, read: mouse, brain tissue, oral 200 mg/kg, n = 8.

For `COC(=O)[C@@]12CC[C@]3(C)C([C@H](O)[C@H](O)[C@@]4([C@@H](C)O)COC(=O)C=C[C@H]43)[C@@]1(C)CC[C@@]1(C)CC=C(C)C[C@]12O` (stereo partly drawn) [G–A, galphimine-A], in data set [1] (1440 min (24 h) after single oral 200 mg/kg, mean ± S.E.M., n = 8, 200 mg/kg), the “G–A Concentration Brain” value is 0.32 ± 0.14 µg/mL. Further, the Tmax – broadly, the time from dosing to the highest level – in data set [1] (ICR, mouse, brain, po, 200 mg/kg, brain tissue, oral 200 mg/kg, n = 8, read-out: Tmax (converted)) was 1.36 h. In addition, in data set [1] (setting [3]), the A amounted to 2.98 µg/mL, the V/F was 68.16 (mg/kg)/(μg/mL), the k10 worked out at 0.0008 min⁻¹ and the ka was 0.051 min⁻¹. Besides, the Tmax in data set [1] (brain tissue, oral 200 mg/kg, n = 8, 200 mg/kg) came out at 1.36 h. In data set [1] (setting [4]), the AUC(0-inf) (as a rule, the area under the concentration-time curve extrapolated to infinity) is 58700 ng·h/mL; the CL/F – broadly, the apparent clearance, not corrected for the fraction that reaches the circulation – is 57 mL/min/kg; the Cmax (usually the peak of the concentration-time curve) amounted to 2740 ng/mL; the MRT (commonly the average time that molecules of a dose stay in the body) was 20.3 h. For the same compound, the AUC(0-t) in data set [1] (mouse, brain tissue, oral 200 mg/kg, n = 8, read-out: AUC0-1440 min (converted)) is 31900 ng·h/mL. In data set [1] (mouse, brain, 5 min after single oral 200 mg/kg, mean ± S.E.M., n = 8), the concentration at 5 min stood at 0 ng/mL. In data set [1] (mouse, brain, 10 min after single oral 200 mg/kg, mean ± S.E.M., n = 8), this compound returned a concentration at 10 min of 880 ± 330 ng/mL. In data set [1] (mouse, brain, 15 min after single oral 200 mg/kg, mean ± S.E.M., n = 8), this compound yielded a concentration at 15 min of 1480 ± 580 ng/mL. In data set [1] (mouse, brain, 30 min after single oral 200 mg/kg, mean ± S.E.M., n = 8), the concentration at 30 min worked out at 3440 ± 500 ng/mL. This compound had a concentration at 60 min in data set [1] (mouse, brain, 60 min after single oral 200 mg/kg, mean ± S.E.M., n = 8) of 3010 ± 590 ng/mL. In data set [1] (mouse, brain, 120 min after single oral 200 mg/kg, mean ± S.E.M., n = 8), this compound yielded a concentration at 120 min of 2500 ± 580 ng/mL. Besides, the concentration at 240 min in data set [1] (mouse, brain, 240 min after single oral 200 mg/kg, mean ± S.E.M., n = 8) worked out at 2180 ± 480 ng/mL. This compound had a concentration at 480 min in data set [1] (mouse, brain, 480 min after single oral 200 mg/kg, mean ± S.E.M., n = 8) of 1780 ± 370 ng/mL. In data set [1] (mouse, brain, 720 min after single oral 200 mg/kg, mean ± S.E.M., n = 8), the concentration at 720 min came out at 550 ± 180 ng/mL. Besides, the concentration at 1440 min in data set [1] (mouse, brain, 1440 min (24 h) after single oral 200 mg/kg, mean ± S.E.M., n = 8) was determined as 320 ng/mL. Moreover, the Anxiolytic effect entry in data set [2] (15 mg/kg dose administered intraperitoneally) is listed as “anxiolytic effects”. In data set [2] (among the galphimines), the Anxiolytic activity result is “most active; also recorded: highest anxiolytic activity”.
